Experimental data: PMC11642940, “A New Demand for Improved Selectivity and Potency of Cyanine Dyes as Antiproliferative Agents Against Colorectal Cancer Cells” (Molecules, 2024)

Key:
NHDF cell line = experiment: Phototoxicity assay (MTT after white light irradiation); format: cell-based; conditions: Homo sapiens, light or radiation study, 30 min white light irradiation (30 W RGB LED) after 48 h, 72 h in total
Procedure: While this work focused on monomethine cyanine dyes designed to be used at the outer edge of the “phototherapeutic window” (650–850 nm), photocytotoxicity and photostability studies were carried out for cyanines 5 and 10, as part of an effort to determine whether there would be synergistic action from light exposure on their cytotoxicity. A 30 W RGB LED light source, previously validated by our research group, was applied to the NHDF cell line using the MTT assay. […] These reductions in cytotoxicity align with previous studies on similar compounds and are likely due to some level of photodegradation.
A phototoxicity evaluation was performed on the NHDF cell line with a similar methodology to the MTT assay and following previously validated methods. After 48 h of incubation with increasing concentrations ranging from 0.001 to 100 μM, cells were subjected to 30 min of constant irradiation with the white light of a Luxtar (Yancheng, Jiangsu, China) RGBW LED projector (220–240 V and 30 W). After this irradiation, the cells were incubated at 37 °C for an additional 24 h (72 h in total). This assay was performed in quadruplicate, and two independent assays were realized.

Caco-2 cells = experiment: Fluorescence microscopy (cell penetration, intracellular localization); format: cell-based, human; conditions: Caco-2, 1 µM, 20 h, Hoescht 33342 counterstain
Procedure: The cells were incubated with the dyes for 20 h, followed by fixation and staining with Hoescht 33342, a commonly used cell-permeant nucleic acid stain.
Fluorescence microscopy was used to confirm whether the compounds under study cross the cell membrane, and to understand where they are located within the cell (nucleus and/or cytoplasm). To this end, the procedure previously described in Lima et al. was followed. Hoescht 33342 was used as a specific marker. Cells were seeded in 24-well culture plates containing sterile circular coverslips of 15 mm diameter. After 48 h for cell adhesion, they were incubated with the compounds for 20 h. After this incubation period, the cells were washed three times with PBS and the fixation process was carried out. To do this, the contents of the wells were removed, and a 4% formalin solution was added until the wells were covered, followed by an incubation at room temperature for 15 min. Then, the washing process was repeated three times with PBS, and the cells were then incubated with a solution of Hoescht 33342 (1:500) for 10 min, in the dark and at room temperature. Subsequently, the wells were washed again with PBS and the slides were mounted with permanent mounting medium (Dako) and left to dry in a cool and dry place for 24 h. […]

[1] = Photostability assay (absorbance decay under white light); format: physicochemical; conditions: 10 µM in PBS, after 30 min white light irradiation; 436 nm for 5, 439 nm for 10
Procedure: To further explore this, the photostability of these dyes was tested. […] A gradual linear degradation continued for at least 120 min. This degradation likely explains the decreased cytotoxicity observed in the photocytotoxicity assay.
In a 96-well plate, 100 µL of dyes 5 and 10 at a concentration of 10 µM, prepared from 10 mM DMSO stock solution diluted in PBS, was added at each well. The photostability assay was performed by irradiating the as previously described for photocytotoxicity evaluation, repeated several times up to 120 min. Spectrophotometric readings were taken over the maximum absorption wavelength of each dye (436 nm for 5 and 439 nm for 10). Two independent experiments were performed in quadruplicate, and the obtained absorbance values were normalized.

Structure (SMILES)	IC50 (NHDF cell line)	cell membrane crossing, intracellular localization and fluorescence (Caco-2 cells)	reduction in absorbance at maximum wavelength [1]
CN1C(=Cc2oc3ccccc3[n+]2C)C=Cc2ccccc21.Cc1ccc(S(=O)(=O)[O-])cc1 [Dye 5, 3-Methyl-2-((1-methylquinolin-2(1H)-ylidene)methyl)benzo[d]oxazol-3-ium 4-methylbenzenesulfonate]	4.07 µM	stain a specific organelle within the nucleoplasm but does not localize in the DNA	3.7%
CCN1C(=Cc2sc3cc([N+](=O)[O-])ccc3[n+]2CC)Sc2ccccc21.Cc1ccc(S(=O)(=O)[O-])cc1 [Dye 10, 3-Ethyl-2-((3-ethylbenzo[d]thiazol-2(3H)-ylidene)methyl)-6-nitrobenzo[d]thiazol-3-ium 4-methylbenzenesulfonate]	34.1 µM	significantly lower fluorescence intensity compared to dye 5	2.5%
